Experimental data reported in ChEMBL document CHEMBL5376012, “Consensus screening for a challenging target: the quest for P-glycoprotein inhibitors” (RSC Med Chem, 2024).
Active and inactive are the calls of the source. The rule behind the calls is not given here.

What was measured:
[1] = system: Caco-2; assay: Cytotoxicity against colchicine and vincristine stimulated human Caco-2 cells assessed as reduction in cell viability at 10 uM preincubated for 30 mins followed by colchicine and vincristine addition for 24 hrs by CCK-8 assay relative to control; format: functional; settings: time 24.5 hrs
[2] = molecular target: ATP-dependent translocase ABCB1 (Homo sapiens, UniProt P08183); assay: Inhibition of human recombinant P-gp ATPase activity in isolated membranes incubated in presence of verapamil by firefly luciferase based luminescence analysis; format: cell membranes
[3] = system: Caco-2; assay: Cytotoxicity against colchicine and vincristine stimulated human Caco-2 cells assessed as reduction in cell viability at 10 uM preincubated for 30 mins followed by colchicine and vincristine addition for 24 hrs by CCK-8 assay; format: functional, cell-based; settings: time 24.5 hrs

Sequence of ATP-dependent translocase ABCB1 (P08183 whole entry): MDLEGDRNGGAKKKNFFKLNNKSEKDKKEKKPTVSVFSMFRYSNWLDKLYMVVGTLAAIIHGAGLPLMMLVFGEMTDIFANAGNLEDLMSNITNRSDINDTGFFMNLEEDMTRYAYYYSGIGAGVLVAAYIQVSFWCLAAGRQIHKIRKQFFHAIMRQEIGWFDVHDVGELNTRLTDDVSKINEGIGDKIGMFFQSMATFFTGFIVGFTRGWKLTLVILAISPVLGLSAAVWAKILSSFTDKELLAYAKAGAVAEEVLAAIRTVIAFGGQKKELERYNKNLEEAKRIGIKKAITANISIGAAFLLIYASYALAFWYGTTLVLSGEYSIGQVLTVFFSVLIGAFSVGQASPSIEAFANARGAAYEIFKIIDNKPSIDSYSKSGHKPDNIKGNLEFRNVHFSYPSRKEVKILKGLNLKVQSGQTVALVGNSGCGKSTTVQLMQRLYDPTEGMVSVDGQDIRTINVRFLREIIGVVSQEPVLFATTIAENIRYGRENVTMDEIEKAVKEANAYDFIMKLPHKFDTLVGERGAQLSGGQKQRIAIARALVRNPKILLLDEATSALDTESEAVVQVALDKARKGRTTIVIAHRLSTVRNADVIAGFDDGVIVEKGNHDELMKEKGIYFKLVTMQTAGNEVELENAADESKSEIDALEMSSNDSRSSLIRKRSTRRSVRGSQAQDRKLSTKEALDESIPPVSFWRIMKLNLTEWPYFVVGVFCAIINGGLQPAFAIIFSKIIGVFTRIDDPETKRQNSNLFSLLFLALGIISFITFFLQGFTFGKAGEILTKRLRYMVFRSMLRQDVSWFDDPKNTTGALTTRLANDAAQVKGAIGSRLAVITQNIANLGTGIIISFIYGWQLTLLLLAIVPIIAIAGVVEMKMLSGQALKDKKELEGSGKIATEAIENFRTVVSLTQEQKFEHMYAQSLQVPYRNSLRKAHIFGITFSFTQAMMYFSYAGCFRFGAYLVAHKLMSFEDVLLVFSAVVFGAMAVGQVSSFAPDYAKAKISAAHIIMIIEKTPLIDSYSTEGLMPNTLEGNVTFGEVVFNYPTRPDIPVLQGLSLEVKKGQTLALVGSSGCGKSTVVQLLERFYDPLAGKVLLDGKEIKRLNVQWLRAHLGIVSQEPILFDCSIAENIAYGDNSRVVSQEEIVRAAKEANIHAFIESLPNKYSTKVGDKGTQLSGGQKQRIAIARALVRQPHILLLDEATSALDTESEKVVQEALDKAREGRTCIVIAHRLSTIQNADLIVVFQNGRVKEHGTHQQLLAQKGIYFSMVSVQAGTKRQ

Compound | IC50 [2] | Activity [1] | Activity [3]
O=C(O)[C@H]1O[C@@H](Oc2cc3oc(-c4ccc(O)cc4)cc(=O)c3c(O)c2O)[C@H](O)[C@@H](O)[C@@H]1O [SCUTELLARIN] | 19.7 µM |  | 
CC(C)C[C@H](NC(=O)[C@H]1CCCN1C(=O)[C@@H](C)NC(=O)COc1cc(O)c2c(=O)c(-c3ccc4c(c3)OCCO4)coc2c1)C(=O)CC(N)=O | > 50 µM |  | inactive
COc1ccc2c(c1)[C@H](CCNC(=O)C[C@@H](C1=C(O)[C@@]3(Oc4c(Cl)c(OC)cc(OC)c4C3=O)[C@H](C)CC1=O)c1ccc(O)c(OC)c1)C(=O)N2 | > 50 µM |  | 
COC(=O)[C@@H](Cc1cccc([N+](=O)[O-])c1O)NC(=O)CCC(=O)OCC(=O)[C@@]1(O)CC[C@@H]2[C@@H]3CCC4=CC(=O)CC[C@]4(C)[C@@H]3CC[C@@]21C | 7.9 µM |  | 
CC(C)(C)OC(=O)N[C@H](Cc1ccc(OC(=O)OC(C)(C)C)cc1)C(=O)NCCCC(=O)Oc1ccc2c(=O)c(Oc3ccccc3F)coc2c1 | > 50 µM |  | 
CCOC(=O)c1cccc(NC(=O)O[C@@H]2CO[C@H]3[C@@H]2OC[C@@H]3NS(=O)(=O)c2cc(OC)ccc2OC)c1 | > 50 µM |  | inactive
COC(=O)C[C@@H](c1ccc(-c2cc(C(=O)O)ccc2Cl)o1)c1oc(CN2CCN(c3ccc(OC)cc3)CC2)cc(=O)c1O | 4.99 µM | 30% | 

These reach a lower IC50 [2]. Values come first.

IC50 [2] | Compound | Activity [1] | Activity [3]
4.8 µM | COc1ccc(-c2coc3c4c(cc(O)c3c2=O)OC(=O)C[C@H]4c2ccc(OCc3nccn3C)c(OC)c2)cc1OC | 30% | 
3.31 µM | COc1cc([C@@H](CC(=O)NCCCN2CCOCC2)C2=C(O)[C@@]3(Oc4c(Cl)c(OC)cc(OC)c4C3=O)[C@H](C)CC2=O)ccc1O | 30% | 
3.17 µM | CC(=O)c1c(O)c(C)c(O)c2c1OC1=CC(=O)/C(=C(/C)Nc3cc(-c4nnn(CC(=O)O)n4)ccc3O)C(=O)[C@@]12C | 30% | 
2.4 µM | COc1cc(CCNC(=O)C[C@@H](C2=C(O)[C@@]3(Oc4c(Cl)c(OC)cc(OC)c4C3=O)[C@H](C)CC2=O)c2ccc(SC)cc2)c([N+](=O)[O-])cc1OC | 30% | 
1.28 µM | COc1cc([C@@H](CC(=O)NCCC(=O)Nc2ccccn2)C2=C(O)[C@@]3(Oc4c(Cl)c(OC)cc(OC)c4C3=O)[C@H](C)CC2=O)ccc1O | 30% | 
